These results are taken from patent publication US4472304A, “(Amido)N-substituted bleomycins, salts thereof and process for preparation thereof” (Nippon Kayaku Kabushiki Kaisha, priority 1981, dated 1984).

For experiment [1], the system named is Mycobacterium smegmatis ATCC 607. Briefly: Antimicrobial activity against Mycobacterium smegmatis ATCC 607 (agar plate-cylinder). The class given is cell-based. Conditions: standard bleomycin A2 (copper-free) assumed 1,000 mcg potency/mg. The protocol:
(§1) 2. ANT[…] MYC[…] ATCC 607 AND BACILLUS SUBTILIS
(§2) The antimicrobial activity was tested against the captioned test organisms by the method of agar plate-cylinder. The activity was recorded on the assumption that the activity of standard sample of bleomycin A2 (copper-free form) is 1,000 mcg poteney/mg.

A further experiment has as its system Bacillus subtilis. Briefly: Antimicrobial activity against Bacillus subtilis (agar plate-cylinder). Type of experiment: cell-based. The following applies: standard bleomycin A2 (copper-free) assumed 1,000 mcg potency/mg. The protocol: as §1, §2

Regarding `Cc1c(N)nc(C(CC(N)=O)NCC(N)C(=O)NCc2cccnc2)nc1C(=O)NC(C(=O)NC(C)C(O)C(C)C(=O)NC(C(=O)NCCc1nc(-c2nc(C(=O)NCCCCNC(=N)N)cs2)cs1)C(C)O)C(OC1OC(CO)C(O)C(O)C1OC1OC(CO)C(O)C(OC(N)=O)C1O)c1cnc[nH]1` (centres unmarked) [Compound 19, 4-Guanidinobutylamino-(amido)N--[3-pyridylmethyl]-BLM], the “Antimicrobial potency of Cu-free compound against Mycobacterium smegmatis ATCC 607” value in experiment [1] is 5160 mcg potency/mg. Moreover, the “Antimicrobial potency of Cu-free compound against Bacillus subtilis” value in the experiment on Bacillus subtilis was determined as 1010 mcg potency/mg.
Taken in the same sequence, the figures for `Cc1c(N)nc(C(CC(N)=O)NCC(N)C(=O)NCc2ccccc2)nc1C(=O)NC(C(=O)NC(C)C(O)C(C)C(=O)NC(C(=O)NCCc1nc(-c2nc(C(=O)NCCc3c[nH]cn3)cs2)cs1)C(C)O)C(OC1OC(CO)C(O)C(O)C1OC1OC(CO)C(O)C(OC(N)=O)C1O)c1cnc[nH]1` (centres unmarked) [Compound 4, 2-(4'-Imidazolyl)ethylamino-(amido)N--[benzyl]-BLM] were 6595 mcg potency/mg and 579 mcg potency/mg.
Taken in the same sequence, the figures for `COc1ccc2[nH]cc(CCNC(=O)C(N)CNC(CC(N)=O)c3nc(N)c(C)c(C(=O)NC(C(=O)NC(C)C(O)C(C)C(=O)NC(C(=O)NCCc4nc(-c5nc(C(=O)NCCCNC(C)c6ccccc6)cs5)cs4)C(C)O)C(OC4OC(CO)C(O)C(O)C4OC4OC(CO)C(O)C(OC(N)=O)C4O)c4cnc[nH]4)n3)c2c1` [Compound 28, 3-((S)-1'-phenylethylamino)propylamino-(amido)N--[5-methyoxyindol-3-ylethyl]-BLM] were 18650 mcg potency/mg and 586 mcg potency/mg.
Taken in the same sequence, the figures for `Cc1c(N)nc(C(CC(N)=O)NCC(N)C(=O)NCCCNC(C)c2ccccc2)nc1C(=O)NC(C(=O)NC(C)C(O)C(C)C(=O)NC(C(=O)NCCc1nc(-c2nc(C(=O)NCCc3c[nH]cn3)cs2)cs1)C(C)O)C(OC1OC(CO)C(O)C(O)C1OC1OC(CO)C(O)C(OC(N)=O)C1O)c1cnc[nH]1` [Compound 5, 2-(4'-Imidazolyl)ethylamino-(amido)N--[3-((S)-1'-phenylethyl)-aminopropyl]-BLM] were 9846 mcg potency/mg and 3772 mcg potency/mg.
On to `Cc1c(N)nc(C(CC(N)=O)NCC(N)C(=O)NCc2nccs2)nc1C(=O)NC(C(=O)NC(C)C(O)C(C)C(=O)NC(C(=O)NCCc1nc(-c2nc(C(=O)NCCCCNC(=N)N)cs2)cs1)C(C)O)C(OC1OC(CO)C(O)C(O)C1OC1OC(CO)C(O)C(OC(N)=O)C1O)c1cnc[nH]1` (centres unmarked) [Compound 20, 4-Guanidinobutylamino-(amido)N--[2-thiazolylmethyl]-BLM], for which the “Antimicrobial potency of Cu-free compound against Mycobacterium smegmatis ATCC 607” value in experiment [1] was 4870 mcg potency/mg. Moreover, in the experiment on Bacillus subtilis, the “Antimicrobial potency of Cu-free compound against Bacillus subtilis” value turned out to be 900 mcg potency/mg.
Taken in the same sequence, the figures for `CCCCN(CCCC)CCCNC(=O)C(N)CNC(CC(N)=O)c1nc(N)c(C)c(C(=O)NC(C(=O)NC(C)C(O)C(C)C(=O)NC(C(=O)NCCc2nc(-c3nc(C(=O)NCCCCNC(=N)N)cs3)cs2)C(C)O)C(OC2OC(CO)C(O)C(O)C2OC2OC(CO)C(O)C(OC(N)=O)C2O)c2cnc[nH]2)n1` (centres unmarked) [Compound 12] were 16438 mcg potency/mg and 4384 mcg potency/mg.
For `CCCCCCCCCCCCNC(=O)C(N)CNC(CC(N)=O)c1nc(N)c(C)c(C(=O)NC(C(=O)NC(C)C(O)C(C)C(=O)NC(C(=O)NCCc2nc(-c3nc(C(=O)NCCCNC(C)c4ccccc4)cs3)cs2)C(C)O)C(OC2OC(CO)C(O)C(O)C2OC2OC(CO)C(O)C(OC(N)=O)C2O)c2cnc[nH]2)n1` [Compound 26, 3-((S)-1'-phenylethylamino)propylamino-(amido)N--[lauryl]-BLM], in that order: 3920 mcg potency/mg and 384 mcg potency/mg.
For `Cc1c(N)nc(C(CC(N)=O)NCC(N)C(=O)NCc2ccc(Cl)cc2)nc1C(=O)NC(C(=O)NC(C)C(O)C(C)C(=O)NC(C(=O)NCCc1nc(-c2nc(C(=O)NCCCNC(C)c3ccccc3)cs2)cs1)C(C)O)C(OC1OC(CO)C(O)C(O)C1OC1OC(CO)C(O)C(OC(N)=O)C1O)c1cnc[nH]1` [Compound 24, 3-((S)-1'-phenylethyl)aminopropylamino-(amido)N--[p-chlorobenzyl]-BLM], in that order: 56328 mcg potency/mg and 1184 mcg potency/mg.
Take `Cc1c(N)nc(C(CC(N)=O)NCC(N)C(=O)Nc2ccc3ccccc3c2)nc1C(=O)NC(C(=O)NC(C)C(O)C(C)C(=O)NC(C(=O)NCCc1nc(-c2nc(C(=O)NCCCCNC(=N)N)cs2)cs1)C(C)O)C(OC1OC(CO)C(O)C(O)C1OC1OC(CO)C(O)C(OC(N)=O)C1O)c1cnc[nH]1` (stereo not drawn) [Compound 17, 4-Guanidinobutylamino-(amido)N--[β-naphthyl]-BLM]: the “Antimicrobial potency of Cu-free compound against Mycobacterium smegmatis ATCC 607” value in experiment [1] was 33650 mcg potency/mg. The “Antimicrobial potency of Cu-free compound against Bacillus subtilis” value in the experiment with Bacillus subtilis is 1295 mcg potency/mg.
Taken in the same sequence, the figures for `CCCCCCCCCCCCCCCCCCNC(=O)C(N)CNC(CC(N)=O)c1nc(N)c(C)c(C(=O)NC(C(=O)NC(C)C(O)C(C)C(=O)NC(C(=O)NCCc2nc(-c3nc(C(=O)NCCCNC(C)c4ccccc4)cs3)cs2)C(C)O)C(OC2OC(CO)C(O)C(O)C2OC2OC(CO)C(O)C(OC(N)=O)C2O)c2cnc[nH]2)n1` [Compound 25, 3-((S)-1'-phenylethylamino)propylamino-(amido)N--[stearyl]-BLM] were 210 mcg potency/mg and 0 mcg potency/mg.
For `Cc1c(N)nc(C(CC(N)=O)NCC(N)C(=O)NCc2ccco2)nc1C(=O)NC(C(=O)NC(C)C(O)C(C)C(=O)NC(C(=O)NCCc1nc(-c2nc(C(=O)NCCCCNC(=N)N)cs2)cs1)C(C)O)C(OC1OC(CO)C(O)C(O)C1OC1OC(CO)C(O)C(OC(N)=O)C1O)c1cnc[nH]1` (centres unmarked) [Compound 18, 4-Guanidinobutylamino-(amido)N--[2-furylmethyl]-BLM], in that order: 19150 mcg potency/mg and 1285 mcg potency/mg.
Taken in the same sequence, the figures for `CCCCCCCCNC(=O)C(N)CNC(CC(N)=O)c1nc(N)c(C)c(C(=O)NC(C(=O)NC(C)C(O)C(C)C(=O)NC(C(=O)NCCc2nc(-c3nc(C(=O)NCCCN(C)CCCNCCc4ccc(Cl)cc4)cs3)cs2)C(C)O)C(OC2OC(CO)C(O)C(O)C2OC2OC(CO)C(O)C(OC(N)=O)C2O)c2cnc[nH]2)n1` (centres unmarked) [Compound 44] were 38750 mcg potency/mg and 1898 mcg potency/mg.
On to `Cc1c(N)nc(C(CC(N)=O)NCC(N)C(=O)NCc2ccccc2)nc1C(=O)NC(C(=O)NC(C)C(O)C(C)C(=O)NC(C(=O)NCCc1nc(-c2nc(C(=O)NCCCCNC(=N)N)cs2)cs1)C(C)O)C(OC1OC(CO)C(O)C(O)C1OC1OC(CO)C(O)C(OC(N)=O)C1O)c1cnc[nH]1` (centres unmarked) [Compound 14, 4-Guanidinobutylamino-(amido)N--[benzyl]-BLM], for which the “Antimicrobial potency of Cu-free compound against Mycobacterium smegmatis ATCC 607” value in experiment [1] is recorded as 28140 mcg potency/mg. In addition, the “Antimicrobial potency of Cu-free compound against Bacillus subtilis” value in the experiment with Bacillus subtilis came out at 1650 mcg potency/mg.
